# Measurements taken from publication PMC8623273, “Novel N7-Arylmethyl Substituted Dinucleotide mRNA 5′ cap Analogs: Synthesis and Evaluation as Modulators of Translation” (Pharmaceutics, 2021).
# Key:
# [1] = tested on: cap-dependent translation in rabbit reticulocyte lysate (RRL); experiment: inhibition of cap-dependent translation in rabbit reticulocyte lysate (RRL); format: biochemical; details: RRL, cap analog and mRNA added at the same time (no pre-incubation), 60 min, 30 °C; read-out: Translation Inhibition IC50
# Experimental: After determining the affinity for eIF4E and susceptibility to DcpS, we evaluated the analogs as inhibitors of protein translation in rabbit reticulocyte lysates (RRL). To enable better assessment of how these two factors influenced inhibitory properties, we performed two sets of experiments. In the first set, cap analogs were added to RRL along with luciferase-encoding reporter mRNA followed by a protein activity (luminescence) readout after 1 h, whereas in the second set cap analogs were additionally preincubated in RRL for 1 h prior to addition of mRNA. Based on previously reported findings, we expected that in the second experimental setup, cap analogs susceptible to DcpS would lose their inhibitory potency, whereas compounds resistant to DcpS would remain similarly active.
# The ability of the N7-benzyl cap analogues to inhibit cap-dependent translation was assayed in a rabbit reticulocyte lysate (RRL) system. Two sets of experiments were performed. In both variants, in vitro translation reactions (10 μL total volume) contained a tested cap analog (inhibitor) and an in vitro transcribed, ARCA-capped mRNA encoding Gaussia luciferase at 1 μg/mL final concentration. In experimental variant A, cap analogues at concentrations in the range of 0 to 64 μM and mRNA were added to the reaction mixture at the same time. Reactions were incubated at 30 °C for 60 min and then stopped by freezing in liquid nitrogen. In experimental variant B, the cap analogues were added at concentrations in the range of 0 to 160 μM. Reactions were pre-incubated at 30 °C for 60 min prior to addition of mRNA; after addition of mRNA incubation was continuous at 30 °C for 60 min and then stopped by freezing in liquid nitrogen. To detect luminescence from Gaussia luciferase, 50 μL of 10 ng/mL h-coelenterazine (NanoLight, Norman, OK, USA) in PBS was added to 10 μL of RRL and the luminescence was measured with a Synergy H1 (BioTek, Winooski, VT, USA) microplate reader.
# [2] = biological target: eIF4E (Mus musculus, UniProt P63073); experiment: fluorescence anisotropy (FA) competition assay with eIF4E; format: binding; details: Table S2; for EC50: 25 °C, probe m^7GTP-triazol-FAM 10 nM, eIF4E 100 nM; for Kd: calculated from EC50
# Excerpt: The KD values determined from the high-throughput assay were in qualitative agreement with data from time-synchronized fluorescence quenching titration, justifying the use of the former for evaluation of the whole set of caps. […] To additionally verify the binding affinity data (especially for 1q and 1r, as mentioned above), we determined the binding affinities for all analogs using another independent assay, based on fluorescence anisotropy. The KD data determined by this method correlated very well with the results reported above (Table S2, Figure S2).
# Fractions of the compounds were independently tested using a different method based on fluorescence anisotropy (FA). These experiments were performed on a Synergy™ H1 plate reader in 96-well, black, non-binding assay plates. Each well contained appropriate buffer (50 mM HEPES/KOH pH 7.2, 100 mM KCl, 0.5 mM EDTA i 1 mM DTT), the fluorescent probe m^7GTP-triazol-FAM (10 nM), substrate (in a 2.08-fold dilution, starting from 60 μM) and protein eIF4E (100 nM). The m^7GTP-triazol-FAM was synthesized as describer earlier. All measurements were performed at 25 °C. Determined EC50 values were means ± SD of three independent experiments. The dissociation constants KD were then calculated using the equation described by Nikolovska-Coleska as described earlier.
# [3] = biological target: eukaryotic translation initiation factor 4E (eIF4E) (Mus musculus, UniProt P63073); experiment: pyrene-probe fluorescent competitive-binding assay (PyFLINT-B) for cap analog-eIF4E; details: for EC50: Table S2; for Kd: pyrene-based high-throughput competition assay, 30 °C, KD calculated from EC50, read-out: KD Cap-eIF4E ± SD; for effect of the N7 substituent on eIF4E binding (in words): compared to m^7GpppG / 1a or unmodified counterpart
# Excerpt: High affinity for eIF4E is a desirable feature of cap analogs designed for modulating translation, either as small molecules or as a part of mRNA. Thus, we studied how different substituents at the N7-position affected eIF4E-cap interaction. To this end, we first determined the affinity of m^7GpppG and Bn^7GpppG (1a) using time-synchronized fluorescence quenching titration, a very precise and well-established, but low-throughput method. Next, to evaluate the whole set of the synthesized compounds (1a–1r), we used a high-throughput competitive-binding assay based on a pyrene-labeled fluorescent probe. From this assay we determined relative affinities of the compounds represented by half-effective concentrations (EC50) (Figure 3A–C), which were then used to calculate dissociation constant (KD) values for cap analog–eIF4E complexes using previously reported equations (Table 2, Figure 3D).
# To determine the dissociation constants of the library of N7-benzylated dinucleotide 5′ cap analogs for translation initiation factor 4E, a fluorescent competitive-binding assay (PyFLINT-B) was applied as previously described. The experiments were performed on a Synergy™ H1 plate reader in 96-well, black, non-binding assay plates. Each well contained an appropriate buffer (50 mM Hepes/KOH pH 7.2, 100 mM KCl and 0.5 mM EDTA), pyrene probe m^7Gp5C4Py (10 nM), substrate (in half-logarithmic dilutions from 850 μM to 0.03 μM for compound 1m and from 100 μM to 0.003 μM for m^7GpppG and the rest of the compounds) and protein eIF4E (75 nM). The m^7Gp5C4Py was synthesized as describer earlier. The pyrene probe was dissolved in water and concentration was determined spectrometrically at 345 nm using the extinction coefficient (21,000 M^−1 cm^−1). The eIF4E protein was centrifuged after defrosting (5 min, 4 °C, 10k rcf) and its concentration was determined spectrometrically at 280 nm using the extinction coefficient (52,940 M^−1 cm^−1). The reaction mixtures were preincubated (15 min, 300 rpm, 30 °C). All measurements were performed at 30 °C and the fluorescence detection at 345 nm excitation and 378 nm emission was recorded.
# To determine EC50 values, GraphPad Prism 9.1.2 software was used. To fit the curves to the obtained data we used the following formula:(1) Y=Bottom+ Top−Bottom/1+ X/EC50 where: X, cap analog (ligand) concentration; EC50, concentration of the cap analog resulting in half-maximal response from the fluorescent probe–protein complex; Bottom, minimal signal from the negative control, which contains only the free probe; Top, maximal signal from the positive control, the mixture of the protein and the fluorescent probe.
# The dissociation constants KD were then calculated using the equation described by Nikolovska-Coleska et al.:(2) KD=EC50−Pt+PL50KD_probe/L50+1/L50/KD_probe+P0/KD_probe+1 where: EC50, concentration of the cap analog resulting in half-maximal response from the fluorescent probe–protein complex; [Pt], total protein concentration; [PL]50, concentration of the probe–protein complex at 50% inhibition; KD_probe, dissociation constant of the complex between the fluorescent probe and the protein; [L]50, probe concentration at 50% inhibition; [P]0, free protein concentration at 0% inhibition.
# [4] = biological target: T1, hDcpS (Homo sapiens, UniProt Q96C86); format: in vitro ADME; details: 100 μM compound, 20 nM hDcpS; for hDcpS Assay: fraction of the cap remaining after 1 h incubation with DcpS: 37 °C
# T1 sequence (Q96C86 1-337): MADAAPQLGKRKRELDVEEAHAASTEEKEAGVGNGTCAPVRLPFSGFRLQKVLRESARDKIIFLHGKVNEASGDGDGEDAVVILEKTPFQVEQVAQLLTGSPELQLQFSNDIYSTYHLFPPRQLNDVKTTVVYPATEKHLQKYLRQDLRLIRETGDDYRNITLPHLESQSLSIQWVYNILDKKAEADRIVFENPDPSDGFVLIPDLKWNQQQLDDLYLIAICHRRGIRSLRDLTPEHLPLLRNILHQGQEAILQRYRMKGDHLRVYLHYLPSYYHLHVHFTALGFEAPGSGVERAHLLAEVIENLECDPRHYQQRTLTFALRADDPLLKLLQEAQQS
# Experimental: Susceptibility to decapping scavenger (DcpS) is one of the factors that could potentially influence the cellular stability of mono- and dinucleotide cap analogs designed as translational inhibitors. Therefore, we studied the susceptibility of arylmethyl-modified dinucleotides to DcpS. The compounds (at 100 μM concentration each) were incubated with 20 nM of hDcpS, and the hydrolysis progress at different time points was analyzed via RP HPLC and compared to m^7GpppG (Figure 4 and Figure S3).
# The enzymatic activity of DcpS was assayed at 37 °C in 50 mM Tris∙HCl, pH 7.6 containing 200 mM KCl, 0.5 mM EDTA. DcpS cleavage assays were carried out with 100 μM of the tested compound and 20 nM (monomer) of the hDcpS. Enzymatic reaction progress was examined after 30, 60 and 180 min. As a control, a sample was examined before adding enzyme. Aliquots of 15 μL were terminated by heat inactivation of the enzyme for 3 min at 98 °C. The samples were analyzed via RP HPLC equipped with a Supelcosil LC-18-T column (4.6 × 250 mm, 5 μm, flow rate 1.3 mL/min).
# eIF4E, sequence (P63073 whole entry): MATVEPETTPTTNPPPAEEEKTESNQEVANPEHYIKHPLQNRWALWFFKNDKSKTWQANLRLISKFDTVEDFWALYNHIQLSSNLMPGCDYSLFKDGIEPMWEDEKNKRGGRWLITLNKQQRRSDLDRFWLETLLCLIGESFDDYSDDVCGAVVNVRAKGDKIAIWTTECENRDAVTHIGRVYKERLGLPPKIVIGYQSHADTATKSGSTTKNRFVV
# eukaryotic translation initiation factor 4E (eIF4E), sequence (P63073 whole entry): as above
smiles,measurement,setting,value
"Cc1cc(C)cc(C[n+]2cn([C@@H]3O[C@H](COP(=O)(O)OP(=O)([O-])OP(=O)(O)OC[C@H]4O[C@@H](n5cnc6c(=O)[nH]c(N)nc65)[C@H](O)[C@@H]4O)[C@@H](O)[C@H]3O)c3nc(N)nc(O)c32)c1 [1f, 3,5-di-MeBn^7GpppG]",IC50,[1],13.2 ± 2 µM
same,EC50,[2],1100 ± 100 nM
same,Kd,[2],384 ± 41 nM
same,EC50,[3],7.5 µM
same,Kd,[3],646 ± 114 nM
same,susceptibility to hDcpS (in words),[4],Lower susceptibility to hydrolysis
same,hDcpS Assay: fraction of the cap remaining after 1 h incubation with DcpS,[4],0.95
"Nc1nc(O)c2c(n1)n([C@@H]1O[C@H](COP(=O)(O)OP(=O)([O-])OP(=O)(O)OC[C@H]3O[C@@H](n4cnc5c(=O)[nH]c(N)nc54)[C@H](O)[C@@H]3O)[C@@H](O)[C@H]1O)c[n+]2Cc1cccc2ccccc12 [1o, α-Naphm^7GpppG]",EC50,[2],2100 ± 100 nM
same,Kd,[2],739 ± 49 nM
same,EC50,[3],35 µM
same,effect of the N7 substituent on eIF4E binding (in words),[3],disrupted the binding to a similar extent as 2-methylbenzyl
same,Kd,[3],3040 ± 490 nM
same,susceptibility to hDcpS (in words),[4],lower susceptibility to hDcpS than m^7GpppG
same,hDcpS Assay: fraction of the cap remaining after 1 h incubation with DcpS,[4],0.97
"Nc1nc(O)c2c(n1)n([C@@H]1O[C@H](COP(=O)(O)OP(=O)([O-])OP(=O)(O)OC[C@H]3O[C@@H](n4cnc5c(=O)[nH]c(N)nc54)[C@H](O)[C@@H]3O)[C@@H](O)[C@H]1O)c[n+]2Cc1ccc(F)cc1F [1j, 2,4-di-F-Bn^7GpppG]",IC50,[1],8.4 ± 1.5 µM
same,EC50,[2],870 ± 50 nM
same,Kd,[2],298 ± 18 nM
same,EC50,[3],6.9 µM
same,Kd,[3],598 ± 87 nM
same,conversion after 1 h of incubation with hDcpS,[4],~70%
same,hDcpS Assay: fraction of the cap remaining after 1 h incubation with DcpS,[4],0.70
"Cc1ccc(C[n+]2cn([C@@H]3O[C@H](COP(=O)(O)OP(=O)([O-])OP(=O)(O)OC[C@H]4O[C@@H](n5cnc6c(=O)[nH]c(N)nc65)[C@H](O)[C@@H]4O)[C@@H](O)[C@H]3O)c3nc(N)nc(O)c32)cc1 [1d, 4-MeBn^7GpppG]",IC50,[1],16.9 ± 3.5 µM
same,EC50,[2],860 ± 30 nM
same,Kd,[2],295 ± 13 nM
same,EC50,[3],5.6 µM
same,Kd,[3],482 ± 81 nM
same,susceptibility to hDcpS (in words),[4],almost as good a substrate as Bn^7GpppG
same,hDcpS Assay: fraction of the cap remaining after 1 h incubation with DcpS,[4],0.53
"Nc1nc(O)c2c(n1)n([C@@H]1O[C@H](COP(=O)(O)OP(=O)([O-])OP(=O)(O)OC[C@H]3O[C@@H](n4cnc5c(=O)[nH]c(N)nc54)[C@H](O)[C@@H]3O)[C@@H](O)[C@H]1O)c[n+]2Cc1ccc(C(=O)O)cc1 [1m, 4-COOH-Bn^7GpppG]",IC50,[1],> 500 µM
same,effect of the N7 substituent on eIF4E binding (in words),[3],completely disrupted the binding
same,Kd,[3],> 50000 nM
same,susceptibility to hDcpS (in words),[4],Lower susceptibility to hydrolysis
same,hDcpS Assay: fraction of the cap remaining after 1 h incubation with DcpS,[4],0.93
"Nc1nc(O)c2c(n1)n([C@@H]1O[C@H](COP(=O)(O)OP(=O)([O-])OP(=O)(O)OC[C@H]3O[C@@H](n4cnc5c(=O)[nH]c(N)nc54)[C@H](O)[C@@H]3O)[C@@H](O)[C@H]1O)c[n+]2Cc1ccc2ccccc2c1 [1p, β-Naphm^7GpppG]",IC50,[1],15.9 ± 3.4 µM
same,EC50,[3],12 ± 0.6 µM
same,effect of the N7 substituent on eIF4E binding (in words),[3],disrupted the binding to a similar extent as 2-methylbenzyl
same,Kd,[3],1060 ± 190 nM
same,susceptibility to hDcpS (in words),[4],lower susceptibility to hDcpS than m^7GpppG
same,hDcpS Assay: fraction of the cap remaining after 1 h incubation with DcpS,[4],0.84
"Cc1ccccc1C[n+]1cn([C@@H]2O[C@H](COP(=O)(O)OP(=O)([O-])OP(=O)(O)OC[C@H]3O[C@@H](n4cnc5c(=O)[nH]c(N)nc54)[C@H](O)[C@@H]3O)[C@@H](O)[C@H]2O)c2nc(N)nc(O)c21 [1b, 2-MeBn^7GpppG]",IC50,[1],154 ± 88 µM
same,EC50,[2],3100 ± 100 nM
same,Kd,[2],1120 nM
same,effect of the N7 substituent on eIF4E binding (in words),[3],decreased the binding affinity by eight-fold
same,Kd,[3],1910 ± 360 nM
same,susceptibility to hDcpS (in words),[4],very slowly hydrolyzed
same,hDcpS Assay: fraction of the cap remaining after 1 h incubation with DcpS,[4],0.88
